From article PMC9389804 (Journal of Hematology & Oncology, 2022)
“And” between values parts separate entries of the source, which are not always exact repeats. Identical values can stand only once.

Test: safety assessments (adverse events, NCI CTCAE)
Settings: for Treatment-related cardiovascular events: any grade
[1] = median follow-up of nearly 3 years
[2] = nonhematologic TRAE, all 165 patients
[3] = treatment-related CVE G 3/4, Accelerated phase n=38
[4] = treatment-related CVE G 3/4, Chronic phase n=127
[5] = treatment-related CVE G 3/4, Total n=165
[6] = treatment-related CVE any grade, Accelerated phase n=38
[7] = treatment-related CVE any grade, Chronic phase n=127
[8] = treatment-related CVE any grade, Total n=165

Procedure: Adverse events were assessed continuously and graded according to NCI CTCAE v5.0.18. Complete blood count with differential, serum chemistries, and physical examinations were performed before the study; weekly during Cycles 1 and 2; on alternate weeks in Cycles 3 and 4; and monthly thereafter.

For `Cc1ccc(C(=O)Nc2ccc(CN3CCN(C)CC3)c(C(F)(F)F)c2)cc1C#Cc1cnc2[nH]ncc2c1` [olverembatinib], the Hematologic (TRAE any grades, Total n=165) was 138 (83.6) n (%), the Hyperbilirubinemia (TRAE any grades, Total n=165) was 69 (41.8) n (%) and the Hyperglycemia (TRAE any grades, Total n=165) was 43 (26.1) n (%). The Hypertriglyceridemia (TRAE any grades, Total n=165) was 95 (57.6) n (%), the Hypoalbuminemia (TRAE any grades, Total n=165) was 26 (15.8) n (%) and the Hypocalcemia (TRAE any grades, Total n=165) was 64 (38.8) n (%). For the same compound, the Hypokalemia (TRAE any grades, Total n=165) was 42 (25.5) n (%), the Hyponatremia (TRAE any grades, Total n=165) was 38 (23.0) n (%) and the Increased alanine aminotransferase (TRAE any grades, Total n=165) was 59 (35.8) n (%). The Increased alkaline phosphatase (TRAE any grades, Total n=165) was 21 (12.7) n (%), the Increased aspartate aminotransferase (TRAE any grades, Total n=165) was 59 (35.8) n (%) and the Increased creatine phosphokinase (TRAE any grades, Total n=165) was 48 (29.1) n (%). The “Increased γ-glutamyl transferase” value (TRAE any grades, Total n=165) was 47 (28.5) n (%), the Leukopenia (TRAE any grades, Total n=165) was 56 (33.9) n (%) and the Myalgia (TRAE any grades, Total n=165) was 31 (18.8) n (%). The Neutropenia (TRAE any grades, Total n=165) was 26 (15.8) n (%), the Nonhematologic (TRAE any grades, Total n=165) was 165 (100.0) n (%) and the Pain in extremity (TRAE any grades, Total n=165) was 21 (12.7) n (%). The Proteinuria (TRAE any grades, Total n=165) was 84 (50.9) n (%), the Pyrexia (TRAE any grades, Total n=165) was 30 (18.2) n (%) and the Rash (TRAE any grades, Total n=165) was 27 (16.4) n (%). For the same compound, the Sinus tachycardia (TRAE any grades, Total n=165) was 30 (18.2) n (%), the Skin pigmentation (TRAE any grades, Total n=165) was 139 (84.2%) n (%) and 139 (84.2) n (%) and the Thrombocytopenia (TRAE any grades, Total n=165) was 126 (76.4) n (%). The Treatment-related adverse events (TRAE any grades, Total n=165) was 165 (100.0) n (%), the “Adverse events resulting in dose interruption” value (Total n=165) was 86 (52.1%) n (%) and 86 (52.1) n (%) and the “Adverse events resulting in dose reduction” value (Total n=165) was 50 (30.3%) n (%) and 50 (30.3) n (%). For the same compound, the “Adverse events resulting in treatment discontinuation” value (Total n=165) was 13 (7.9) n (%), the “severe thrombocytopenia leading to dose reduction” value (all 165 patients) was 15.8% and the Treatment-related cardiovascular events (Accelerated phase n=38) was 9 (23.7) n (%). For the same compound, the Treatment-related cardiovascular events (Chronic phase n=127) was 44 (34.6) n (%), the Treatment-related cardiovascular events (Total n=165) was 53 (32.1%) n (%) and 53 (32.1) n (%) and the “median time to temporary treatment suspension or dose reduction” value (for SAEs) was 5 months. For the same compound, the “patients requiring temporary treatment suspension or dose reduction” value (for SAEs) was 75 (46.0%) n (%), the “myelosuppression, median duration” value (in vivo) was 36 (7–718) days and the “myelosuppression, median onset time” value (in vivo) was 28 (4–676) days. The “patients in whom CVEs were grade 1 or 2” value (in vivo) was 88.5%, the “patients who received platelet transfusions” value (in vivo) was 11.5% and the “patients who received red blood cell transfusions” value (in vivo) was 9.7%. The “median duration of treatment interruptions” value (interruptions due to AEs) was 56 days, the “median number of treatment interruptions” value (interruptions due to AEs) was 2 and the “incidence of arterial occlusive and venous thrombotic events” value [1] was 5.0%. The “olverembatinib-related CVEs” value [1] was 32.0%, the “median time to onset of nonhematologic TRAEs” value (most frequent nonhematologic TRAEs) was 70 days and the Hyperbilirubinemia [2] was 41.8%. The Hypertriglyceridemia [2] was 57.6%, the Hypocalcemia [2] was 38.8% and the Proteinuria [2] was 50.9%. The elevated liver transaminases [2] was 35.8%, the “patients with Fridericia-corrected QT interval exceeding 500 ms on treatment” value (patients with CVEs) was “None” and the “renal function according to estimated glomerular filtration rate” value (patients with persistent proteinuria) was “did not observe decreased renal function”. The Anemia (serious AE (SAE)) was 6.0%, the Atrial fibrillation (serious AE (SAE)) was 2.0% and the Pneumonia (serious AE (SAE)) was 3.0%. The Pyrexia (serious AE (SAE)) was 2.0%, the Thrombocytopenia (serious AE (SAE)) was 9.0% and the “acute MI, cholelithiasis, pericardial effusion, upper-respiratory-tract infection, and urinary-tract infection (each)” value (serious AE (SAE)) was 1%. For the same compound, the Acute coronary syndrome [3] was 0 n (%), the Acute myocardial infarction [3] was 0 n (%) and the Angina pectoris [3] was 0 n (%). For the same compound, the Arrhythmia [3] was 0 n (%), the Arteriosclerosis coronary artery [3] was 0 n (%) and the Atrial fibrillation [3] was 1 (2.6) n (%). For the same compound, the Atrial tachycardia [3] was 0 n (%), the Cardiomegaly [3] was 0 n (%) and the Cerebral infarction [3] was 0 n (%). For the same compound, the Lacunar infarction [3] was 0 n (%), the Palpitations [3] was 0 n (%) and the Pericardial effusion [3] was 1 (2.6) n (%). The Retinal-vein occlusion [3] was 0 n (%), the Supraventricular extrasystoles [3] was 0 n (%) and the Ventricular extrasystoles [3] was 0 n (%). For the same compound, the Acute coronary syndrome [4] was 1 (0.8) n (%), the Acute myocardial infarction [4] was 1 (0.8) n (%) and the Angina pectoris [4] was 0 n (%). For the same compound, the Arrhythmia [4] was 1 (0.8) n (%), the Arteriosclerosis coronary artery [4] was 1 (0.8) n (%) and the Atrial fibrillation [4] was 1 (0.8) n (%). The Atrial tachycardia [4] was 0 n (%), the Cardiomegaly [4] was 0 n (%) and the Cerebral infarction [4] was 1 (0.8) n (%). For the same compound, the Lacunar infarction [4] was 1 (0.8) n (%), the Palpitations [4] was 0 n (%) and the Pericardial effusion [4] was 1 (0.8) n (%). For the same compound, the Retinal-vein occlusion [4] was 2 (1.6) n (%), the Supraventricular extrasystoles [4] was 0 n (%) and the Ventricular extrasystoles [4] was 0 n (%). The Acute coronary syndrome [5] was 1 (0.6) n (%), the Acute myocardial infarction [5] was 1 (0.6) n (%) and the Angina pectoris [5] was 0 n (%). For the same compound, the Arrhythmia [5] was 1 (0.6) n (%), the Arteriosclerosis coronary artery [5] was 1 (0.6) n (%) and the Atrial fibrillation [5] was 2 (1.2) n (%). For the same compound, the Atrial tachycardia [5] was 0 n (%), the Cardiomegaly [5] was 0 n (%) and the Cerebral infarction [5] was 1 (0.6) n (%). For the same compound, the Lacunar infarction [5] was 1 (0.6) n (%), the Palpitations [5] was 0 n (%) and the Pericardial effusion [5] was 2 (1.2) n (%). For the same compound, the Retinal-vein occlusion [5] was 2 (1.2) n (%), the Supraventricular extrasystoles [5] was 0 n (%) and the Ventricular extrasystoles [5] was 0 n (%). For the same compound, the Acute coronary syndrome [6] was 0 n (%), the Acute myocardial infarction [6] was 0 n (%) and the Angina pectoris [6] was 0 n (%). For the same compound, the Arrhythmia [6] was 0 n (%), the Arteriosclerosis coronary artery [6] was 0 n (%) and the Atrial fibrillation [6] was 3 (7.9) n (%). For the same compound, the Atrial tachycardia [6] was 0 n (%), the Cardiomegaly [6] was 0 n (%) and the Cerebral infarction [6] was 0 n (%). The Lacunar infarction [6] was 0 n (%), the Palpitations [6] was 1 (2.6) n (%) and the Pericardial effusion [6] was 3 (7.9) n (%). For the same compound, the Retinal-vein occlusion [6] was 0 n (%), the Supraventricular extrasystoles [6] was 2 (5.3) n (%) and the Ventricular extrasystoles [6] was 0 n (%). The Acute coronary syndrome [7] was 1 (0.8) n (%), the Acute myocardial infarction [7] was 1 (0.8) n (%) and the Angina pectoris [7] was 1 (0.8) n (%). For the same compound, the Arrhythmia [7] was 1 (0.8) n (%), the Arteriosclerosis coronary artery [7] was 1 (0.8) n (%) and the Atrial fibrillation [7] was 2 (1.6) n (%). For the same compound, the Atrial tachycardia [7] was 1 (0.8) n (%), the Cardiomegaly [7] was 1 (0.8) n (%) and the Cerebral infarction [7] was 1 (0.8) n (%). For the same compound, the Lacunar infarction [7] was 1 (0.8) n (%), the Palpitations [7] was 1 (0.8) n (%) and the Pericardial effusion [7] was 11 (8.7) n (%). For the same compound, the Retinal-vein occlusion [7] was 3 (2.4) n (%), the Supraventricular extrasystoles [7] was 3 (2.4) n (%) and the Ventricular extrasystoles [7] was 7 (5.5) n (%). For the same compound, the Acute coronary syndrome [8] was 1 (0.6) n (%), the Acute myocardial infarction [8] was 1 (0.6) n (%) and the Angina pectoris [8] was 1 (0.6) n (%). The Arrhythmia [8] was 1 (0.6) n (%), the Arteriosclerosis coronary artery [8] was 1 (0.6) n (%) and the Atrial fibrillation [8] was 5 (3.0) n (%). The Atrial tachycardia [8] was 1 (0.6) n (%), the Cardiomegaly [8] was 1 (0.6) n (%) and the Cerebral infarction [8] was 1 (0.6) n (%). The Lacunar infarction [8] was 1 (0.6) n (%), the Palpitations [8] was 2 (1.2) n (%) and the Pericardial effusion [8] was 14 (8.5) n (%). For the same compound, the Retinal-vein occlusion [8] was 3 (1.8) n (%), the Supraventricular extrasystoles [8] was 5 (3.0) n (%) and the Ventricular extrasystoles [8] was 7 (4.2) n (%).
